Source: ChEMBL document CHEMBL3244021, “Structure and biological activity of (-)-[3H]dihydroalprenolol, a radioligand for studies of beta-adrenergic receptors” (J Med Chem, 1977)

How the values were obtained:
[1] = Stability of the compound; format: physicochemical
[2] = Antagonist activity at beta adrenergic receptor in frog erythrocyte membrane assessed as inhibition of (-)-isoproterenol-stimulated adenylate cyclase activity measured as [32P]-cAMP level; format: cell membranes, Anura
[3] = Binding affinity to beta adrenergic receptor in frog erythrocyte membrane after 10 mins by liquid scintillation counting analysis; format: cell membranes, Anura
[4] = Displacement of (-)-[3H]dihydroalprenolol from beta adrenergic receptor in frog erythrocyte membrane after 10 mins by liquid scintillation counting analysis; format: cell membranes, Anura

Row | Stability [1] | Kd [2] [nM] | Kd [3] [nM] | Kd [4] [nM] | SMILES
1 | Stable | 4 | 3 | – | [3H]C([3H])([3H])C([3H])([3H])Cc1ccccc1OCC(O)CNC(C)C (single isomer, unassigned; (-))
2 | – | 4 | – | 2.5 | CCCc1ccccc1OCC(O)CNC(C)C (single isomer, unassigned; (-))
3 | – | 4 | – | 2.5 | C=CCc1ccccc1OCC(O)CNC(C)C (configuration not stated)
